According to patent US7655645B2, “Indole derivatives” (N.V. Organon, priority 2007, dated 2010):

Target: T1, human CB1 receptor (Homo sapiens, UniProt P21554)
T1 construct: expressed in transfected cells; host or cells: CHO (Chinese Hamster Ovary) cells
Test: In-vitro determination of efficacy and potency at the human CB1 receptor expressed in CHO cells (luciferase reporter assay)
Format: cell-based
Conditions: CHO cells expressing the human CB1 receptor and a luciferase reporter gene; 5 h incubation at 37° C.
Protocol: Methods to determine receptor binding as well as in vitro biological activity of cannabinoid receptor modulators are well known in the art. In general, expressed receptor is contacted with the compound to be tested and binding or stimulation or inhibition of a functional response is measured.
In-Vitro Determination of Efficacy and Potency at the Human CB1 Receptor Expressed in CHO Cells
Chinese Hamster Ovary (CHO) cells expressing the human CB1 receptor and a luciferase reporter gene were suspended in phenol red/serum free DMEM/F-12 nut mix containing penicillin/streptomycin (50 U/50 μg/ml) and fungizone (1 μg/ml) and seeded into 96 well plates at a density of 3×10^4 cells per well (100 μl final volume). Cells were incubated overnight (approx. 18 h at 37° C., 5% CO2/95% air) prior to assay.
The test compound (10 mM solution in dimethylsulfoxide) was diluted in F12 Nut Mix to give a range of stock solutions from 0.11 mM to 0.11 nM. The stock solutions (10 μl) were added directly to the relevant wells. The plates were incubated at 37° C. for 5 h to allow agonist-induced expression of the luciferase enzyme. Under subdued light, LucLite substrate (Packard; reconstituted as per manufacturer's instructions; 100 μl) was added to each well. Plates were covered with Top Seal and then incubated at room temperature for 5 minutes before counting on the Packard TopCount (single photon counting, 0.01 minute count time, 5 minute count delay).
A “best-fit” curve was fitted by a minimum sum of squares method to the plot of counts per second (CPS) against compound concentration (M) to obtain an EC50 value.

T1 sequence (P21554 whole entry): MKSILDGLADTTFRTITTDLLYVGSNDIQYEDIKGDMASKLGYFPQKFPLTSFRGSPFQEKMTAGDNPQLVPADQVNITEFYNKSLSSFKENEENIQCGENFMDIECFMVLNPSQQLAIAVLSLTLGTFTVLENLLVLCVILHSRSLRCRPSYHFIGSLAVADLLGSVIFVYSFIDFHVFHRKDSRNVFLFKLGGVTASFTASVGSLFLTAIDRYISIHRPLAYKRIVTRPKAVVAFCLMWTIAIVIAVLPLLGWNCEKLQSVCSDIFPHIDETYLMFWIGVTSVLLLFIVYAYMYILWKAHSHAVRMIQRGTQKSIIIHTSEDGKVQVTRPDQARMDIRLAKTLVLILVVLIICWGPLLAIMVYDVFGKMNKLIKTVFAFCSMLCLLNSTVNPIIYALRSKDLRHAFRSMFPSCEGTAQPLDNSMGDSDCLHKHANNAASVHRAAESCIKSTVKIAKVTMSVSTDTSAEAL

`NC(=O)CN1CCN(Cc2nc(-c3cn(CC4CCOCC4)c4c(Cl)cccc34)ns2)CC1` [Example 1, 3-({5-[4-(Carbamoylmethyl)piperazin-1-yl]methyl}-[1,2,4]-thiadiazol-3-yl)-7-chloro-1-(tetrahydropyran-4-yl)methyl-1H-indole] was tested. Which EC50 did it give?
Its EC50 is 15.8 nM.

How did the EC50 turn out when `CCNC(=O)CN1CCN(Cc2nc(-c3cn(CC4CCOCC4)c4c(Cl)cccc34)ns2)CC1` [Example 3, 7-Chloro-3-({5-[4-(ethylcarbamoyl)methylpiperazin-1-yl]methyl}-[1,2,4]-thiadiazol-3-yl)-1-(tetrahydropyran-4-yl)methyl-1H-indole] was run?
Its EC50 is 39.8 nM.

With `CCc1cccc2c(-c3nsc(CN4CCN(CC(=O)NC(C)C)CC4)n3)cn(CC3CCOCC3)c12` [Example 6b, 7-Ethyl-3-({5-[4-(N-isopropylcarbamoyl)methylpiperazin-1-yl]methyl}-[1,2,4]-thiadiazol-3-yl)-1-(tetrahydropyran-4-yl)methyl-1H-indole] as the compound, how does the EC50 read?
Its EC50 is 50.1 nM.

For `CCc1cccc2c(-c3nsc(CN4CCN(CC(=O)OC)CC4)n3)cn(CC3CCOCC3)c12` [Example 6d, 7-Ethyl-3-({5-[4-(methoxycarbonylmethyl)piperazin-1-yl]methyl}-[1,2,4]-thiadiazol-3-yl)-1-(tetrahydropyran-4-yl)methyl-1H-indole], which EC50 is on record?
Its EC50 is 63.1 nM.

With `COc1cccc2c(-c3nsc(CN4CCN(CC(N)=O)CC4)n3)cn(CC3CCOCC3)c12` [Example 7a, 3-({5-[4-(Carbamoylmethyl)piperazin-1-yl]methyl}-[1,2,4]-thiadiazol-3-yl)-7-methoxy-1-(tetrahydropyran-4-yl)methyl-1H-indole] as the compound, how does the EC50 read?
The EC50 was 100 nM.

`NC(=O)CN1CCN(Cc2nc(-c3cn(CC4CCOCC4)c4c(Cl)cccc34)no2)CC1` [Example 11, 3-({5-[4-(Carbamoylmethyl)piperazin-1-yl]methyl}-[1,2,4]-oxadiazol-3-yl)-7-chloro-1-(tetrahydropyran-4-yl)methyl-1H-indole] was tested. Which EC50 did it give?
The EC50 was 79.4 nM.

For `O=S1(=O)CCC(Cn2cc(-c3noc(CN4CCN(Cc5ncon5)CC4)n3)c3cccc(Cl)c32)CC1` [Example 17, 7-Chloro-3-({5-[4-([1,2,4]oxadiazol-3-ylmethyl)piperazin-1-yl]methyl}-[1,2,4]-oxadiazol-3-yl)-1-(1,1-dioxo-hexahydrothiopyran-4-yl)methyl-1H-indole], which EC50 is on record?
Its EC50 is 158 nM.

How did the EC50 turn out when `NC(=O)CN1CCCN(Cc2nc(-c3cn(CC4CCOCC4)c4c(Cl)cccc34)no2)CC1` [Example 21d, 3-{5-[4-(Carbamoylmethyl)-homopiperazin-1-ylmethyl]-[1,2,4]-oxadiazol-3-yl}-7-chloro-1-[(tetrahydropyran-4-yl)methyl]-1H-indole] was run?
Its EC50 is 63.1 nM.

How did the EC50 turn out when `CNC(=O)CN1CCN(Cc2nc(-c3cn(CC4CCOCC4)c4c(Cl)cccc34)no2)C[C@H]1CO` [Example 24, (S)-7-Chloro-3-[5-[3-hydroxymethyl-4-(methylcarbamoylmethyl)piperazin-1-ylmethyl]-[1,2,4]-oxadiazol-3-yl]-1-[(tetrahydropyran-4-yl)methyl]-1H-indole] was run?
The EC50 was 12.6 nM.

How did the EC50 turn out when `NC(=O)CN1CCN(Cc2csc(-c3cn(CC4CCOCC4)c4c(Cl)cccc34)n2)CC1` [Example 31, 3-({4-[4-(Carbamoylmethyl)piperazin-1-yl]methyl}-[1,3]-thiazol-2-yl)-7-chloro-1-(tetrahydropyran-4-yl)methyl-1H-indole] was run?
The EC50 was 63.1 nM.
